Laboratory results: publication PMC4050382, “A novel proteasome inhibitor suppresses tumor growth via targeting both 19S proteasome deubiquitinases and 20S proteolytic peptidases” (Scientific Reports, 2014)

Biological target: T1, 20S proteasome (CT-like peptidase, β5 subunit) (Homo sapiens, UniProt P28074)
T1 construct: gene PSMB5; purified 20S proteasome; with 20S proteasome
T1 sequence (P28074 60-263): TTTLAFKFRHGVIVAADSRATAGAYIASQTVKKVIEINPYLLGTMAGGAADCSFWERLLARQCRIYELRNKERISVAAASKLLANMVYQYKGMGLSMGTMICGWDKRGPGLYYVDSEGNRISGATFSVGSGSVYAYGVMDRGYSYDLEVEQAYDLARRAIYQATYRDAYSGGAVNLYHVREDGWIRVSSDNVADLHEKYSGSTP
Assay: fluorogenic CT-like peptidase assay with purified […] proteasome
Type: biochemical

## [O-][n+]1ccccc1[S][Cu][S]c1cccc[n+]1[O-] [L1, CuPT]
  IC50: ~6 µM
